Reference: paper PMC9652372, “Glycolytic flux control by drugging phosphoglycolate phosphatase” (Nature Communications, 2022)
Where a chain is given by its changes, count along the chain named. “And” between values parts separate entries of the source, which are not always exact repeats. Equal entries are not always repeated.

What was measured:
[1] = LC-MS quantification of intracellular CP1; format: in vitro ADME, human; conditions: for Abs. CP1 / Abs. Peak Area, CP1 (neg.): PGP-WT, P5
Experimental: Cells (~1 million cells/dish) were rinsed in PBS (37 °C), trypsinized, sedimented at 300 × g, 4 °C for 4 min, washed once in PBS (4 °C), and sedimented again at 300 × g, 4 °C for 4 min. Cell pellets were snap-frozen in liquid nitrogen.
Water-soluble metabolites were extracted with 50 µl ice-cold MeOH/H2O (80/20, v/v) containing 0.01 μM lamivudine. After centrifugation of the resulting homogenates, supernatants were transferred to a RP18 SPE (50 mg/1 mL tubes; Phenomenex) that had been activated with 0.5 mL CH3CN and conditioned with 0.5 mL of MeOH/H2O (80/20, v/v). The eluate of the RP18 SPE-column was evaporated in a SpeedVac (Savant, Thermo Fisher Scientific). Dry sample extracts were redissolved in 75 μL 5 mM NH4OAc in CH3CN/H2O (50/50, v/v). Twenty µL of supernatant were transferred to LC-vials. Metabolites were analyzed by LC-MS using the following settings: 3 μL of each sample was applied to an XBridge Premier BEH Amide (2.5 μm particles, 100 × 2.1 mm) UPLC-column (Waters). Metabolites were separated with Solvent A, consisting of 5 mM NH4OAc in CH3CN/H2O (40/60, v/v) and solvent B consisting of 5 mM NH4OAc in CH3CN/H2O (95/5, v/v) at a flow rate of 200 µL/min at 45 °C by LC using a DIONEX Ultimate 3000 UHPLC system (Thermo Fisher Scientific). A linear gradient starting after 2 min with 100% solvent B decreasing to 10% solvent B within 23 min, followed by 16 min 10% solvent B and a linear increase to 100% solvent B in 2 min was applied. Recalibration of the column was achieved by a 7 min prerun with 100% solvent B before each injection. […] All MS-analyses were performed on a high-resolution Q Exactive mass spectrometer equipped with a HESI probe (Thermo Fisher Scientific) in alternating positive- and negative full MS mode with a scan range of 69.0–1000 m/z at 70 K resolution and the following ESI source parameters: Sheath gas: 30, auxiliary gas: 1, sweep gas: 0, aux gas heater temperature: 120 °C, spray voltage: 3 kV, capillary temperature: 320 °C, S-lens RF level: 50. XIC generation and signal quantitation was performed using TraceFinder v3.3 (Thermo Fisher Scientific) integrating peaks which corresponded to the calculated monoisotopic metabolite masses (MIM + /− H + ± 3 mMU). Analyses of PGP-WT and PGP-KO cells were performed in n = 5 biologically independent experiments.

NT5C1A = biological target: T1, NT5C1A (Homo sapiens, UniProt Q9BXI3); test: In vitro phosphatase activity assay, NT5C1A (AMP); format: biochemical; conditions: DMSO control = 100, read-out: NT5C1A activity on AMP in presence of CP relative to DMSO controls; for remaining activity at 50 µM: CP log[M] -4.30103; for remaining activity at 40 µM: CP log[M] -4.39794; for remaining activity at 30 µM: CP log[M] -4.52288; for remaining activity at 25 µM: CP log[M] -4.60206; for remaining activity at 20 µM: CP log[M] -4.69897; for remaining activity at 15 µM: CP log[M] -4.82391; for remaining activity at 10 µM: CP log[M] -5; for remaining activity at 5 µM: CP log[M] -5.30103; for remaining activity at […]: CP log[M] -5.60206
T1 construct: purchased Origene #TP324617
T1 sequence (Q9BXI3 1-368): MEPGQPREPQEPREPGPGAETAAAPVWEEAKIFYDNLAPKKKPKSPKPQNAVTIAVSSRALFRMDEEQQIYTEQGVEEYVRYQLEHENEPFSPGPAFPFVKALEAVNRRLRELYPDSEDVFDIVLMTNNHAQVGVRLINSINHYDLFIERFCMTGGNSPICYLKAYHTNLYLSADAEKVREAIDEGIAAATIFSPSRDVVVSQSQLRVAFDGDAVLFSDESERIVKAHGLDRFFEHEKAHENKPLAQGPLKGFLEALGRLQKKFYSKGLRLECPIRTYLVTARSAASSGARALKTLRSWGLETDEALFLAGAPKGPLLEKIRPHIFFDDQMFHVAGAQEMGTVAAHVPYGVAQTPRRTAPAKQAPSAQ
Experimental: Purified human NT5C1A (NM_032526, #TP324617) and purified human PHOSPHO1 (NM_178500, #TP314434) were from Origene. […] Data were analyzed with GraphPad Prism 7.04. […] Data are mean values ± S.E.M. of n=3 independent experiments.

murine PGP-WT = biological target: T2, murine PGP-WT (Mus musculus, UniProt Q8CHP8); test: Isothermal titration calorimetry, PGP-WT; format: binding; conditions: ITC; for Kd: murine PGP
T2 construct: His6 (N, cleaved yes); made in house; host or cells: Escherichia coli BL21 (DE3), pETM11, co-expressed with groES-groEL-tig
T2 sequence (Q8CHP8 1-321): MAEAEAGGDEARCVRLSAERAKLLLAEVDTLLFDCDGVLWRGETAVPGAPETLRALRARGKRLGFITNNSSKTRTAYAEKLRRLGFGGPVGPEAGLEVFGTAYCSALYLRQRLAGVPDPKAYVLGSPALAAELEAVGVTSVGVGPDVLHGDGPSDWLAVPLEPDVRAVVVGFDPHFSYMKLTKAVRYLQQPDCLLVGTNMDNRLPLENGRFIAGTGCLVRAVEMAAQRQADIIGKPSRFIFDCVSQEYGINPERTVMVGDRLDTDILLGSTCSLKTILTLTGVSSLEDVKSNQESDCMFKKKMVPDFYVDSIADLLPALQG
Experimental: Purified murine PGP-WT or PGP-P127E was dialyzed overnight against ITC buffer (30 mM HEPES, 30 mM NaCl, 5 mM MgCl2, 1 mM tris(2-carboxyethyl)phosphine/TCEP; pH 7.5). All calorimetric measurements were performed at 25 °C on an ITC200 microcalorimeter (GE Healthcare). Experiments were conducted with a fixed concentration of 2% DMSO. […] To reduce the effects of ligand leakage from the syringe during baseline equilibration, the heat release of a single 1.2 μL injection was recorded prior to the actual titration experiment, and discarded during data analysis with Nitpic 2.0.7[45]. To determine background heats of dilution, control experiments of ligand into buffer, buffer into protein and buffer into buffer titrations were performed.

murine PGP = biological target: T3, murine PGP (Mus musculus, UniProt Q8CHP8); test: SAR: CP1, CP2 and analogs on PGP phosphatase activity (PG); format: biochemical; design: His6 (N, cleaved yes); made in house; host or cells: Escherichia coli BL21 (DE3), pETM11, co-expressed with groES-groEL-tig; conditions: for inhibition of mPGP activity at 40 µM CP compared to DMSO control (%): single experiments Exp #1-3; for remaining activity at 2 µM: CP log[M] -5.69897; for remaining activity at 1 µM: CP log[M] -6; for remaining activity at 0.5 µM: CP log[M] -6.30103; for remaining activity at […]: CP log[M] -6.60206; for remaining activity at 0.125 µM: CP log[M] -6.90309; for remaining activity at 0.0625 µM: CP log[M] -7.20412
T3 sequence (Q8CHP8 1-321): T2 sequence (Q8CHP8 1-321)
Experimental: However, the DMSO concentration was kept constant across each assay. For SAR experiments, all compound stocks were prepared at 10 mM in 100% DMSO. A constant final DMSO concentration of 0.4% was maintained under all conditions, and solvent control samples contained 0.4% DMSO without compounds.
PGP phosphatase activity were assessed using recombinant, purified murine PGP and PG as a

PGP^P127E = biological target: T4, PGP^P127E (Mus musculus, UniProt Q8CHP8, P127E); conditions: read-out: enzyme activity in presence of CP1 relative to DMSO control (1), mPGP-P127E
T4 sequence (Q8CHP8 1-321 P127E): T2 sequence (Q8CHP8 1-321) with P127E

[2] = read-out: mPGP activity in presence of CP relative to DMSO controls, mPGP on PG (norm.)

Row | SMILES | remaining activity at 50 µM (NT5C1A) [%] | remaining activity at 40 µM (NT5C1A) [%] | remaining activity at 30 µM (NT5C1A) [%] | remaining activity at 25 µM (NT5C1A) [%] | remaining activity at 20 µM (NT5C1A) [%] | remaining activity at 15 µM (NT5C1A) [%] | remaining activity at 10 µM (NT5C1A) [%] | remaining activity at 5 µM (NT5C1A) [%] | remaining activity at […] (NT5C1A) [%] | Kd (murine PGP-WT; 25 °C, mean ± S.E.M., n = 3) [nM] | Kd (murine PGP-WT; single replicates) | dG (murine PGP-WT; single replicates) | dH (murine PGP-WT; single replicates) | dS (murine PGP-WT; single replicates) | inhibition of mPGP activity at 40 µM CP compared to DMSO control (%) (murine PGP) | remaining activity at 2 µM (murine PGP; [2]) [%] | remaining activity at 1 µM (murine PGP; [2]) [%] | remaining activity at 0.5 µM (murine PGP; [2]) [%] | remaining activity at […] (murine PGP; [2]) [%] | remaining activity at 0.125 µM (murine PGP; [2]) [%] | other results
1 | O=C(Nc1ccccc1C(=O)O)c1ccc(Oc2ccc(C(=O)Nc3ccccc3C(=O)O)cc2)cc1 [CP1] | 13.1 | 16.3 | 38.9 | 50.7 | 57 | 83.3 | 90.5 | 104 | 86.9 | 780 | 850 nM and 790 nM and 710 nM | -8.282 kcal/mol and -8.325 kcal/mol and -8.393 kcal/mol | -5.583 kcal/mol and -4.903 kcal/mol and -5.696 kcal/mol | 9.052 cal/Mol*K and 11.478 cal/Mol*K and 9.044 cal/Mol*K | 92.9348% and 99.7175% and 99.6139% | 11.3 | 24.7 | 35.5 | 66.1 | 76.3 | less CP1 detected than expected ([1]; 100 µM CP1): 39%; Abs. CP1 ([1]; 3h 33 uM CP1): 0.136 pmol and 0.115 pmol and 0.127 pmol; Abs. Peak Area, CP1 (neg.) ([1]; 3h 33 uM CP1): 1166078 and 1127449 and 1204353; Abs. CP1 ([1]; 7h 100 uM CP1): 0.229 pmol and 0.231 pmol and 0.241 pmol; Abs. Peak Area, CP1 (neg.) ([1]; 7h 100 uM CP1): 2322474 and 2574644 and 2821728; remaining activity at 80 µM (NT5C1A; CP log[M] -4.09691): 12.2%; remaining activity at 60 µM (NT5C1A; CP log[M] -4.22185): 13.1%; remaining activity at 8 µM (murine PGP; CP log[M] -5.09691, read-out: mPGP activity in presence of CP relative to DMSO controls, mPGP on PG (norm.)): 1.61%; remaining activity at 0.0625 µM (murine PGP; [2]): 88.7%; remaining activity at 0.03125 µM (murine PGP; CP log[M] -7.50515, read-out: mPGP activity in presence of CP relative to DMSO controls, mPGP on PG (norm.)): 93%; remaining activity at 0.0078125 µM (murine PGP; CP log[M] -8.10721, read-out: mPGP activity in presence of CP relative to DMSO controls, mPGP on PG (norm.)): 101%; remaining activity at 32.36 µM (PGP^P127E; CP1 log[M] -4.49, Exp #1-#3): 15%; remaining activity at 15.85 µM (PGP^P127E; CP1 log[M] -4.80, Exp #1-#3): 27%; remaining activity at 7.943 µM (PGP^P127E; CP1 log[M] -5.10, Exp #1-#3): 45%; remaining activity at 3.981 µM (PGP^P127E; CP1 log[M] -5.40, Exp #1-#3): 64%; remaining activity at 1.995 µM (PGP^P127E; CP1 log[M] -5.70, Exp #1-#3): 80%; remaining activity at 1 µM (PGP^P127E; CP1 log[M] -6.00, Exp #2-#3): 85%; remaining activity at 0.5012 µM (PGP^P127E; CP1 log[M] -6.30, Exp #1-#3): 81%; remaining activity at 0.2512 µM (PGP^P127E; CP1 log[M] -6.60, Exp #1-#3): 94%; remaining activity at 0.1259 µM (PGP^P127E; CP1 log[M] -6.90, Exp #1-#3): 92%
2 | O=C(O)c1cc(Nc2ccccc2C(=O)O)nc(Nc2ccccc2C(=O)O)n1 [CP3] | – | – | – | – | – | – | – | – | – | 430 | 500 nM and 320 nM and 460 nM | -8.598 kcal/mol and -8.862 kcal/mol and -8.651 kcal/mol | -6.466 kcal/mol and -5.835 kcal/mol and -6.568 kcal/mol | 7.151 cal/Mol*K and 10.151 cal/Mol*K and 6.986 cal/Mol*K | – | – | – | – | – | – | –
3 | COc1ccc(C(=O)Nc2ccc(Cc3ccc(NC(=O)c4ccc(OC)c(OC)c4)c(C(=O)O)c3)cc2C(=O)O)cc1OC [CP2] | 11.9 | 20.5 | 33.1 | 45.1 | 62.1 | 69 | 74.2 | 83.9 | 91.1 | – | – | – | – | – | 91.3408% and 89.3401% and 90.1099% | 51.6 | 67.7 | 69 | 72.6 | 81.8 | remaining activity at 16 µM (murine PGP; CP log[M] -4.79588, read-out: mPGP activity in presence of CP relative to DMSO controls, mPGP on PG (norm.)): 20.6%; remaining activity at 4 µM (murine PGP; CP log[M] -5.39794, read-out: mPGP activity in presence of CP relative to DMSO controls, mPGP on PG (norm.)): 34.3%; remaining activity at 0.0625 µM (murine PGP; [2]): 84.3%; remaining activity at 0.015625 µM (murine PGP; CP log[M] -7.80618, read-out: mPGP activity in presence of CP relative to DMSO controls, mPGP on PG (norm.)): 96%
